Values quoted from earlier work, collected in PMC5563391 (Investigational new drugs, 2015).

Tested on: patients with CML or Ph+ ALL
Details: phase 1 study; cited from earlier work

CO[C@@H](C(=O)N1Cc2n[nH]c(NC(=O)c3ccc(N4CCN(C)CC4)cc3)c2C1)c1ccccc1 [danusertib]
patients with responses: 6 of 23
